# According to patent US5336485A, “Method for protecting animals against tacrine induced cytotoxic injury using sterol compounds” (priority 1993, dated 1994):
# Structures can show the parent of a compound that is named as a salt.
# Legend:
# [1] = Tissue distribution of alpha-tocopherol and alpha-tocopherol ester in rats; format: in vivo, rat; settings: 48 h after single dose
# [2] = tested on: male Sprague-Dawley rats; test: CCl4 induced lethality in rats; format: in vivo, rat; settings: for Survival after CCl4 treatment: 100 mg/kg ip 24 h prior, […] CCl4 oral
# [3] = tested on: L1210 murine leukemia cells; test: Inhibition of L1210 leukemia cell growth in vitro; format: cell-based, mouse
# Description: Similar in vitro experiments were conducted with cholesteryl succinate tris salt and alpha-TS tris salt.
# [4] = tested on: variety of cell types; settings: cited from earlier work
# [5] = tested on: liver; test: CCl4 induced hepatotoxicity in rats (serum AST/ALT); format: in vivo, rat
# Outline: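 Male Sprague-Dawley rats received test compounds i.p. at 100 mg/kg 20–24 h before oral CCl4 (2.9 g/kg or 1 g/kg). Serum AST and ALT were measured 48 h after CCl4 challenge.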
# [6] = tested on: liver; test: Acetaminophen-induced hepatotoxicity in rats (AST/ALT); format: in vivo, rat
# Description: In vivo experiments were performed to determine if alpha-TS administration protects the liver from the hepatotoxic effects of acetaminophen. Acetaminophen is a commonly used analgesic that is metabolized to a reactive intermediate. […] The other group of male Sprague-Dawley rats received only the acetaminophen challenge. Forty eight hours after the challenge the rats were sacrificed and the levels of aspartate aminotransferase (AST) and alanine aminotransferase (ALT) were measured.
# FIGS. 10 and 11 show the results of in vivo experiments where male Sprague-Dawley rats were given an oral dose of 15 or 30 mg THA/kg body weight, respectively. In the experiments, one group of rats was provided with an i.p. dose of 100 mg cholesteryl succinate tris salt/kg body weight 20 hours prior to the THA challenge, another group of rats only received the THA challenge, and the last group of rats acted as a control and were not challenged. The serum AST levels were determined with respect to time after the THA challenge.
# [7] = tested on: epidermoid carcinomas; settings: local administration; cited from earlier work
# [8] = Blood alpha-TS content after oral dosing in humans; format: in vivo, human; settings: 400 units per day, one month, three males
# From the text: In a one month study with three human males aging from 35 to 62 years 400 units of alpha-tocopheryl succinate were taken per day. Subsequent blood samples were taken from each individual and analyzed for alpha-T and alpha-TS content. […] However, in select individuals, as determined possibly by ethnic origin or diet, tissue alpha-TS accumulation can occur with oral dosing. The absence of alpha-TS hydrolysis in the gut of the one individual in the study who had substantial amounts of alpha-TS in plasma may be attributed to the absence of duodenal secretions after oral alpha-TS administration (lack of dietary fats to stimulate duodenal secretions at the time of alpha-TS administration).
# [9] = 100 mg/kg ip 20 h prior, 48 h after 1 g/kg CCl4 (Table 27), listed as Alpha Tocopheryl Succinate free acid
# [10] = PEG 400 vehicle, ip 20 h prior, 24 hrs after 2 g/kg CCl4 (Table 32)
# [11] = PEG 400 vehicle, ip 20 h prior, 48 hrs after 2 g/kg CCl4 (Table 32)
# [12] = PEG 400 vehicle, ip 20 h prior, 72 hrs after 2 g/kg CCl4 (Table 32)
# [13] = rat plasma, 100 mg/kg ip 24 h prior, 48 h after […] CCl4
# [14] = 100 mg/kg ip 24 h prior, acetaminophen 2.5 g/kg
# [15] = 50 mg/kg ip, 48 h after 1 g/kg CCl4 (Table 28)
# [16] = 100 mg/kg ip 20 h prior, 48 h after 1 g/kg CCl4 (Table 20)
# [17] = 100 mg/kg ip (dihydrocholesterol 80 + sodium sulfate 30 mg/kg), 48 h after 1 g/kg CCl4 (Table 35)
# [18] = 100 mg/kg ip, 30 min after CCl4 1 g/kg (Table 29)
# [19] = 100 mg/kg ip, 30 min prior to CCl4 1 g/kg (Table 29)
# [20] = 100 mg/kg ip, 20 hours prior to CCl4 1 g/kg (Table 29)
# [21] = 100 mg/kg ip, 48 h after 1 g/kg CCl4 (Table 28)
# [22] = 100 mg/kg ip, 48 h after 1 g/kg CCl4 (Table 31)
# [23] = 100 mg/kg ip, 48 h after 1 g/kg CCl4 (Table 37)
# [24] = 100 mg/kg ip, 48 h after 1 g/kg CCl4 (Table 40)
# [25] = 100 mg/kg ip, PEG 400 vehicle, 48 h after 1 g/kg CCl4 (Table 34)
# [26] = 100 mg/kg ip, immediately prior to CCl4 1 g/kg (Table 29)
# [27] = 100 mg/kg oral 20 h prior, 48 h after 1 g/kg CCl4 (Table 20)
# [28] = 200 mg/kg ip, 48 h after 1 g/kg CCl4 (Table 28)
# [29] = 100 mg/kg ip 20 hrs prior, 48 h after 2 g/kg AP (Table 23)
structure (smiles),measurement,setting,value
"Cc1c(C)c2c(c(C)c1OC(=O)CCC(=O)O)CC[C@@](C)(CCC[C@H](C)CCC[C@H](C)CCCC(C)C)O2 [alpha-TS, d-alpha-tocopheryl succinate]",alpha-TS detection in tissue,[1],could not be detected
same,Survival after CCl4 treatment,[2],Yes
same,Protection from CCl4,[2]; 100 mg/kg ip (Table 5),Yes
same,Days Survived after CCl4,"[2]; 100 mg/kg ip, 1 hour after CCl4 and daily thereafter",2 days
same,Days Survived after CCl4,"[2]; 100 mg/kg ip, 1 hour prior and daily thereafter",> 7 days
same,Days Survived After CCl4 Treatment,"[2]; 100 mg/kg ip, 24 h prior, CCl4 3.8 g/kg",> 7 days
same,Days Survived After CCl4 Treatment,"[2]; 100 mg/kg ip, 24 h prior, CCl4 5.0 g/kg",2 days
same,Days Survived After CCl4 Treatment,"[2]; 100 mg/kg ip, 24 h prior, CCl4 […]",> 7 days
same,Days Survived after CCl4,"[2]; 100 mg/kg ip, single dose 24 h prior to CCl4 […]",> 7 days
same,cytoprotection against CCl4 lethality,[2]; 100 mg/kg oral,not observed
same,Protection from CCl4,[2]; 100 mg/kg oral (Table 5),No
same,Days Survived After CCl4 Treatment,"[2]; 100 mg/kg oral, 24 h prior, CCl4 2.2 g/kg",> 7 days
same,Days Survived After CCl4 Treatment,"[2]; 100 mg/kg oral, 24 h prior, CCl4 3.8 g/kg",2 days
same,Days Survived After CCl4 Treatment,"[2]; 100 mg/kg oral, 24 h prior, CCl4 5.0 g/kg",2 days
same,Days Survived After CCl4 Treatment,"[2]; 100 mg/kg oral, 24 h prior, CCl4 […]",3 days
same,Days Survived After CCl4 Treatment,"[2]; 25 m/kg, single dose 24 h prior",> 7 days
same,incubation time required for cytoprotection,[2]; single dose,greater than 12 hours
same,minimal effective concentration,"[3]; Mus musculus, L1210, free acid, 72 hours, read-out: concentration that significantly suppresses growth rate of L1210 cells",> 100 µM
same,protection against carcinogenic effects of radiation and cancer causing chemicals,[4],protects a variety of cell types against the carcinogenic effects of radiation and cancer causing chemicals
same,ALT,[5]; [9],1.08 ± 0.23 10^3 units/L
same,AST,[5]; [9],2.06 ± 0.53 10^3 units/L
same,Serum AST Levels,[5]; [10],.38 ± .15 10^3 units/L
same,Serum AST Levels,[5]; [11],.39 ± .22 10^3 units/L
same,Serum AST Levels,[5]; [12],.14 ± .06 10^3 units/L
same,ALT,[5]; [13],631 ± 17 Units/L
same,AST,[5]; [13],"3,430 ± 1500 Units/L"
same,ALT,[6]; [14],432 ± 188 Units/L
same,AST,[6]; [14],"1,659 ± 607 Units/L"
same,tumor regression,[7],dramatic regression
same,alpha-TS in plasma and erythrocytes,[8],Substantial amounts of alpha-TS in plasma and erythrocytes were observed for only one individual
CC(C)CCC[C@@H](C)[C@H]1CC[C@H]2[C@@H]3CC=C4C[C@@H](OC(=O)CCC(=O)O)CC[C@]4(C)[C@H]3CC[C@]12C [Cholesteryl Succinate tris salt],Survival after CCl4 treatment,[2],Yes
same,growth rate of L1210 cells (FIG. 7),[3],significantly suppress the growth rate of L1210 cells
same,ALT,[5]; [15],0.16 ± 0.11 10^3 units/L
same,AST,[5]; [15],0.56 ± 0.35 10^3 units/L
same,Serum AST Levels,"[5]; 100 mg/kg ip 20 h prior, 24 hrs after 2 g/kg CCl4 (Table 26), tris salt",0.57 ± 0.38 10^3 units/L
same,ALT,[5]; [16],0.122 ± 0.034 10^3 units/L
same,AST,[5]; [16],0.41 ± 0.08 10^3 units/L
same,Serum AST Levels,"[5]; 100 mg/kg ip 20 h prior, 48 hrs after 2 g/kg CCl4 (Table 26), tris salt",0.19 ± 0.07 10^3 units/L
same,ALT,[5]; [17],0.04 ± 0.02 10^3 units/L
same,AST,[5]; [17],0.22 ± 0.06 10^3 units/L
same,ALT,[5]; [18],1.50 ± 0.79 10^3 units/L
same,AST,[5]; [18],7.87 ± 4.09 10^3 units/L
same,ALT,[5]; [19],2.12 ± 1.43 10^3 units/L
same,AST,[5]; [19],9.09 ± 4.38 10^3 units/L
same,ALT,[5]; [20],0.04 ± 0.01 10^3 units/L
same,AST,[5]; [20],0.12 ± 0.02 10^3 units/L
same,ALT,[5]; [21],0.04 ± 0.02 10^3 units/L
same,AST,[5]; [21],0.22 ± 0.06 10^3 units/L
same,ALT,[5]; [22],0.02 ± 0 10^3 units/L
same,AST,[5]; [22],0.10 ± 0.03 10^3 units/L
same,ALT,[5]; [23],0.09 ± 0.01 10^3 units/L
same,AST,[5]; [23],0.21 ± 0.03 10^3 units/L
same,ALT,[5]; [24],0.04 ± 0.01 10^3 units/L
same,AST,[5]; [24],0.12 ± 0.02 10^3 units/L
same,ALT,[5]; [25],0.07 ± 0.03 10^3 units/L
same,AST,[5]; [25],0.29 ± 0.22 10^3 units/L
same,ALT,[5]; [26],1.12 ± 1.38 10^3 units/L
same,AST,[5]; [26],6.69 ± 1.87 10^3 units/L
same,SGOT Levels,"[5]; 100 mg/kg ip, 48 h after 1.0 g/kg CCl4",0.10 ± 0.03 10^3 units/L
same,ALT,[5]; [27],4.09 ± 1.191 10^3 units/L
same,AST,[5]; [27],12.51 ± 41.31 10^3 units/L
same,ALT,[5]; [28],0.03 ± 0.01 10^3 units/L
same,AST,[5]; [28],0.16 ± 0.08 10^3 units/L
same,Serum AST Levels,[5]; [10],.19 ± .10 10^3 units/L
same,Serum AST Levels,[5]; [11],.10 ± .02 10^3 units/L
same,Serum AST Levels,[5]; [12],.10 ± .02 10^3 units/L
same,inhibition in vivo at 100 mg/kg,"[5]; Rattus norvegicus, ip, 48 h, read-out: % Hepatoprotection",100%
same,protection against CCl4 hepatotoxicity (in words),"[5]; rats, serum enzyme levels",complete protection
same,Serum ALT Level,[6]; [29],158 ± 77 Units/L
same,Serum AST Level,[6]; [29],785 ± 495 Units/L
